Measured values reported in EP4678638A1, “NEW E3 UBIQUITIN LIGASE LIGAND, PROTEIN DEGRADATION AGENT AND USE THEREOF” (priority 2023, dated 2024).

Key:
ALK = molecular target: T1, ALK (Homo sapiens, UniProt Q96SW2+Q9HC35+Q9UM73); experiment: Western blot degradation of ALK (H2228 Cell); assay type: cell-based; conditions: Table D5
T1 construct: evaluate the effects of the compounds of the present disclosure on the expression of target proteins in cells; endogenous in cells; host or cells: H2228
Summary of the method: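 Degradation is assessed by immunoblotting lysates of treated cells. Target bands are quantified by grayscale and normalised to an internal control, so degradation rate equals 100% minus % remaining.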

[1] = molecular target: T2, human Cereblon WT GST-tagged protein (Homo sapiens, UniProt Q96SW2); experiment: CRBN binding, HTRF (CEREBLON BINDING kit); conditions: Table II-2, CRBN binding screening, HTRF; for inhibition at 0.5 µM: read-out: Inhibition rate (%) at 0.5µM; for inhibition at 2 µM: read-out: Inhibition rate (%) at 2 µM
T2 construct: purchased CISBIO 64BDCRBNPEH
Summary of the method: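 After 3 h at room temperature, emission at 665 and 620 nm was measured in a homogeneous time-resolved fluorescence format. Compounds competed with a Thalidomide-Re probe for GST-tagged wild-type human CRBN, which was labelled with a Eu anti-GST antibody.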

MM.1S = experiment: CCK-8 proliferation, MM.1S; assay type: cell-based; conditions: Homo sapiens, MM1.S; Table B6, compounds designed based on the ALK inhibitors; MM.1S cells; read-out: Inhibitory activity (IC50, nM) on tumor cell proliferation, MM.1S
Summary of the method: (§1)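 CCK-8 viability readout; IC50 from growth-inhibition curve fitting. Cells plated, dosed 24h later with a 10-point series, top 10µM, 5-fold steps. Culture at 37°C, 5% CO2.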

SR = experiment: CCK-8 proliferation, SR; assay type: cell-based, Human; conditions: Homo sapiens; Table B6, compounds designed based on the ALK inhibitors; SR cells; read-out: Inhibitory activity (IC50, nM) on tumor cell proliferation, SR
Summary of the method: as §1

WEE1 = molecular target: T3, WEE1 (Homo sapiens, UniProt P30291+Q96SW2); experiment: Western blot degradation of WEE1 (hPBMC); assay type: cell-based; conditions: Table D16
T3 construct: evaluate the effects of the compounds of the present disclosure on the expression of target proteins in cells; endogenous in cells; host or cells: hPBMC
Experimental: (§2) Conventional Western blot assay was performed to evaluate the effects of the compounds of the present disclosure on the expression of target proteins in cells.
(§3) (1) Cell Seeding and Protein Harvesting: The selected cells were processed according to the cell seeding procedure and protein harvesting procedure in Table III-2. Table III-2 Cell Seeding and Protein Harvesting Procedures
(§4) (2) To the collected supernatant, 5X SDS sample loading buffer was added, followed by denaturation at 95°C for 5 minutes. The denatured samples were then separated by SDS-PAGE electrophoresis on a polyacrylamide gel. Proteins were transferred to a nitrocellulose membrane (0.45 µm NC membrane), blocked with blocking buffer at room temperature for 1 hour, and subjected to antibody incubation and development procedures according to the antibody manufacturer's instructions (Cell Signaling Technology).
(§5) Half-Maximal Degradation Concentration value (the drug concentration required for degrading proteins by 50%, abbreviated as DC50) reads method: comparing the grayscale values of Western blot bands from drug-treated samples with those from blank DMSO-treated controls, and identifying the drug concentration range at which the grayscale value is half that of the DMSO-treated control bands.
(§6) DC50 values can be calculated using ImageJ software to measure grayscale values of Western blot bands from drug-treated samples. The concentration-response curve is fitted to estimate the drug concentration corresponding to half the grayscale value.
(§7) Target protein remaining (%) refers to the percentage of target protein remaining in hPBMC cells after treatment with protein degrader compounds.
(§8) Calculation method for target protein remaining (%): Use ImageJ software to measure grayscale values of Western blot bands from drug (protein degrader)-treated samples. The grayscale value of drug-treated bands is divided by that of internal control protein bands, and the resulting quotient is normalized to obtain the relative percentage of remaining target protein after protein degrader treatment.
(§9) Target protein degradation rate (%) = 100% - target protein remaining (%).

IKZF2 = molecular target: T4, IKZF2 (Homo sapiens, UniProt Q96SW2+Q9UKS7); experiment: Western blot degradation of IKZF2 (hPBMC); assay type: cell-based; conditions: Table D16
T4 construct: evaluate the effects of the compounds of the present disclosure on the expression of target proteins in cells; endogenous in cells; host or cells: hPBMC
Experimental: as §2, §3, §4, §5, §6, §7, §8, §9

CK1a = molecular target: T5, CK1a (Homo sapiens, UniProt P48729+Q96SW2); experiment: Western blot degradation of CK1a (hPBMC); assay type: cell-based; conditions: Table D16
T5 construct: evaluate the effects of the compounds of the present disclosure on the expression of target proteins in cells; endogenous in cells; host or cells: hPBMC
Experimental: as §2, §3, §4, §5, §6, §7, §8, §9

GSPT1 = molecular target: T6, GSPT1 (Homo sapiens, UniProt P15170+Q96SW2); experiment: Western blot degradation of GSPT1 (hPBMC); assay type: cell-based; conditions: Table D16
T6 construct: evaluate the effects of the compounds of the present disclosure on the expression of target proteins in cells; endogenous in cells; host or cells: hPBMC
Experimental: as §2, §3, §4, §5, §6, §7, §8, §9

IKZF3 = molecular target: T7, IKZF3 (Homo sapiens, UniProt Q96SW2+Q9UKT9); experiment: Western blot degradation of IKZF3 (hPBMC); assay type: cell-based; conditions: Table D16
T7 construct: evaluate the effects of the compounds of the present disclosure on the expression of target proteins in cells; endogenous in cells; host or cells: hPBMC
Experimental: as §2, §3, §4, §5, §6, §7, §8, §9

IKZF1 = molecular target: T8, IKZF1 (Homo sapiens, UniProt Q13422+Q96SW2); experiment: Western blot degradation of IKZF1 (hPBMC); assay type: cell-based; conditions: Table D16
T8 construct: evaluate the effects of the compounds of the present disclosure on the expression of target proteins in cells; endogenous in cells; host or cells: hPBMC
Experimental: as §2, §3, §4, §5, §6, §7, §8, §9

T4 sequence (Q9UKS7 whole entry): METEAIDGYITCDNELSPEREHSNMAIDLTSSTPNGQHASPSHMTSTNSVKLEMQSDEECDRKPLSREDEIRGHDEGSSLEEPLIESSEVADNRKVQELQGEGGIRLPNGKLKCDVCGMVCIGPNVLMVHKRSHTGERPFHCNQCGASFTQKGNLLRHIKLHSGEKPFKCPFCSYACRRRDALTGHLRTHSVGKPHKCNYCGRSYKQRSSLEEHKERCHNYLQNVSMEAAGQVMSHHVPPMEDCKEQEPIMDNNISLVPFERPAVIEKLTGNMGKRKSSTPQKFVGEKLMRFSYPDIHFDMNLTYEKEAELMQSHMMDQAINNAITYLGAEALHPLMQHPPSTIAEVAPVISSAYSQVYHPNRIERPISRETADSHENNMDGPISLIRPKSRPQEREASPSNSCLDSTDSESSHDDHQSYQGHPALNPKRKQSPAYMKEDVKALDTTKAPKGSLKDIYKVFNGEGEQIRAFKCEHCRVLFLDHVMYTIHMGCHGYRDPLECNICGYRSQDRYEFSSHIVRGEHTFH
T4 sequence (Q96SW2 whole entry): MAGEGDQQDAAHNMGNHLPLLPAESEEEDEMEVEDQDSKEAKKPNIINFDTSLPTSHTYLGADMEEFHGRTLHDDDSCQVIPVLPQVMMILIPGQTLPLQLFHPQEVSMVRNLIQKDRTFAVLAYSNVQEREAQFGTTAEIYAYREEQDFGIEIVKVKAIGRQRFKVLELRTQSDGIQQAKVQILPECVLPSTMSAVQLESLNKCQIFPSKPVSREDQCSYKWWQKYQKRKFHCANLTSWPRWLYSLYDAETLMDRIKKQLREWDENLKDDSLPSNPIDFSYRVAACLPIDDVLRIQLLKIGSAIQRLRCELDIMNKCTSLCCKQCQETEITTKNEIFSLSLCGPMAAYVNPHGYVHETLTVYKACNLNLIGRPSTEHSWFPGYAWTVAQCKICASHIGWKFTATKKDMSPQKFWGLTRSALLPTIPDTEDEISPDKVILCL
T4 sequence (Q16531 whole entry partner): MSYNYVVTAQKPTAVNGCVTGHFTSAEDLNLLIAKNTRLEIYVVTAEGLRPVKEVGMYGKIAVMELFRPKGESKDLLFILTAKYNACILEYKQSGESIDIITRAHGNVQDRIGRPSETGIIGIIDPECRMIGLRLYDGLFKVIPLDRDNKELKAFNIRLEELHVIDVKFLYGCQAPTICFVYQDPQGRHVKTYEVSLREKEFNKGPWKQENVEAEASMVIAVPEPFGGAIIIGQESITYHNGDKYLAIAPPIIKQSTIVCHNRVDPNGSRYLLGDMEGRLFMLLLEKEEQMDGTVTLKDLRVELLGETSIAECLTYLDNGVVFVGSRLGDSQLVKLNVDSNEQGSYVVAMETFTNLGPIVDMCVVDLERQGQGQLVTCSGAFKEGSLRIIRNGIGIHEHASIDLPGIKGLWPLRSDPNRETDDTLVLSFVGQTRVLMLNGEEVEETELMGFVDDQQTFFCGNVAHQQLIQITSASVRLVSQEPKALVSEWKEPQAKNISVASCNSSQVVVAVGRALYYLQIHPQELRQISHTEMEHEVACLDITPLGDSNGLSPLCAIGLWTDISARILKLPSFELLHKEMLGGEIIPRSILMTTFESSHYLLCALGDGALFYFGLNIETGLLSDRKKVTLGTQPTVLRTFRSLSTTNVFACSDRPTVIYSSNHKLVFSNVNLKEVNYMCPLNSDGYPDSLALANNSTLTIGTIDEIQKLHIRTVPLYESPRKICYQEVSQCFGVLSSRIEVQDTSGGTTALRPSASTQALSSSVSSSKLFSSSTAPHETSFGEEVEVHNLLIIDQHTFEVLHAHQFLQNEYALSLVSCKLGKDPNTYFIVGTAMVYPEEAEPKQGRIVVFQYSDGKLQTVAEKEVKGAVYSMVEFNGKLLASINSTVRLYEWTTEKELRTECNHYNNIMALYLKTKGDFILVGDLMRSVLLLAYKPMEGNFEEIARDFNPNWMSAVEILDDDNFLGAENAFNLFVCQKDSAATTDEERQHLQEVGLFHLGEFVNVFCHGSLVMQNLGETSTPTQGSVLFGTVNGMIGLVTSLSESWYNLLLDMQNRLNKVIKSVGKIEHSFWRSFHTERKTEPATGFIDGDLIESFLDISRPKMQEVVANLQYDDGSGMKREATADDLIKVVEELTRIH
T8 sequence (Q13422 whole entry): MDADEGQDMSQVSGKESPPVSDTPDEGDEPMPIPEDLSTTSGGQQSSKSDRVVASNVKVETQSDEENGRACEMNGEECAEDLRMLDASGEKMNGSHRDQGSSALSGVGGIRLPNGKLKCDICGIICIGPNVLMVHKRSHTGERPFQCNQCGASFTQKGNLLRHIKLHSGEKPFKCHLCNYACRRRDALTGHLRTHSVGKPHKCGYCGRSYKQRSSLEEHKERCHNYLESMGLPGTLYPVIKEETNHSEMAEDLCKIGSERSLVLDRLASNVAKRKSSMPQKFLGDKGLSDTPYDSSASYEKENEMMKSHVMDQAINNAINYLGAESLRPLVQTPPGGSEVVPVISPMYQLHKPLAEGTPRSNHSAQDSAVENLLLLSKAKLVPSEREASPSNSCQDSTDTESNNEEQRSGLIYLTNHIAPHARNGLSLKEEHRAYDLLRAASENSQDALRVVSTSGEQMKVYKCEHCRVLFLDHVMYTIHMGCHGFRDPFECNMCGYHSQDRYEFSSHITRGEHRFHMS
T8 sequence (Q96SW2 whole entry): as the sequence (Q96SW2 whole entry) above
T8 sequence (Q16531 whole entry partner): as the sequence (Q16531 whole entry partner) above
T5 sequence (P48729 whole entry): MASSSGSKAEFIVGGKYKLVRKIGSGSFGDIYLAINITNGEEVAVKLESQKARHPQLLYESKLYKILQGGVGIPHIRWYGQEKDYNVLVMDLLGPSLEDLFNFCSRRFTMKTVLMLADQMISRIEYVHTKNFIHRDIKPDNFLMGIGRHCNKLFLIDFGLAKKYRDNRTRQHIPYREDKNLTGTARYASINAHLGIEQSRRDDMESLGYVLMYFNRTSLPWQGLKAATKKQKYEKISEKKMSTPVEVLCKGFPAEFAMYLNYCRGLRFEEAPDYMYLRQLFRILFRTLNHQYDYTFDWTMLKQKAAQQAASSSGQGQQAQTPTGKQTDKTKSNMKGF
T5 sequence (Q96SW2 whole entry): as the sequence (Q96SW2 whole entry) above
T5 sequence (Q16531 whole entry partner): as the sequence (Q16531 whole entry partner) above
T3 sequence (P30291 whole entry): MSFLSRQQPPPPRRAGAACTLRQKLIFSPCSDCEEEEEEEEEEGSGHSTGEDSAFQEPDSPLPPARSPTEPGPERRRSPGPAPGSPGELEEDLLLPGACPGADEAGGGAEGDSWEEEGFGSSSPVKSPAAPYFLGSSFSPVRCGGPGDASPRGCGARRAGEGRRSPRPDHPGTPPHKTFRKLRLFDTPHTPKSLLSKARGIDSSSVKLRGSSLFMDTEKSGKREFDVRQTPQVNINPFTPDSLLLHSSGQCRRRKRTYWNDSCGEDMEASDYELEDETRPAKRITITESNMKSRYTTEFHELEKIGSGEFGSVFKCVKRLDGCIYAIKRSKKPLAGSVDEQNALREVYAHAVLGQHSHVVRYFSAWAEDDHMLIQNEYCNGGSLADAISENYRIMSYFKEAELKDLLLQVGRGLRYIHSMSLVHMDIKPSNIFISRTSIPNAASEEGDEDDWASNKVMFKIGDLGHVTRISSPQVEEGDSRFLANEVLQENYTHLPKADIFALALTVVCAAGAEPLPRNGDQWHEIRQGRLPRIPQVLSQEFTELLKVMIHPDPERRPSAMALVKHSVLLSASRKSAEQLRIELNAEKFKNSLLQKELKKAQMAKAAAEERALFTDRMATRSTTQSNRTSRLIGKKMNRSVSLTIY
T3 sequence (Q96SW2 whole entry): as the sequence (Q96SW2 whole entry) above
T3 sequence (Q16531 whole entry partner): as the sequence (Q16531 whole entry partner) above
T2 sequence (Q96SW2 whole entry): as the sequence (Q96SW2 whole entry) above
T7 sequence (Q9UKT9 whole entry): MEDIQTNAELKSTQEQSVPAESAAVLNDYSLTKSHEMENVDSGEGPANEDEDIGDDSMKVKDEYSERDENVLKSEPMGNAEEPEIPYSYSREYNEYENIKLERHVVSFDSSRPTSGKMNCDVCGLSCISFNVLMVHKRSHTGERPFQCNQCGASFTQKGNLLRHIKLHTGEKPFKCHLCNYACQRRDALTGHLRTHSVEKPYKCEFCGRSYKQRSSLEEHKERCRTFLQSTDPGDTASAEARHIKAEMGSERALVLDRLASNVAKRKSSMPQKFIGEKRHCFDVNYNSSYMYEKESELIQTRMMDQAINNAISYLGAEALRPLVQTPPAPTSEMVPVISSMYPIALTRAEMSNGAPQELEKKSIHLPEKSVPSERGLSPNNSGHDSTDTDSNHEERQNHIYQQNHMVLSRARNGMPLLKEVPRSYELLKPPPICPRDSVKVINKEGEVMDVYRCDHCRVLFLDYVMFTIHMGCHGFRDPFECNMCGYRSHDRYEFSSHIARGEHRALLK
T7 sequence (Q96SW2 whole entry): as the sequence (Q96SW2 whole entry) above
T7 sequence (Q16531 whole entry partner): as the sequence (Q16531 whole entry partner) above

inhibition at 0.5 µM [1] [%] | inhibition at 2 µM [1] [%] | IC50 (MM.1S) [nM] | Compound | Degradation of substrate protein ALK (substrate protein remaining %) (ALK) | IC50 (SR) [nM] | Degradation of substrate protein WEE1 (substrate protein remaining %) (WEE1) | Degradation of substrate protein IKZF2 (substrate protein remaining %) (IKZF2) | Degradation of substrate protein CKla (substrate protein remaining %) (CK1a) | Degradation of substrate protein GSPT1 (substrate protein remaining %) (GSPT1) | Degradation of substrate protein IKZF3 (substrate protein remaining %) (IKZF3) | Degradation of substrate protein IKZF1 (substrate protein remaining %) (IKZF1)
40 to 53 | 60 to 80 | 500 to 1000 | CCc1cc2c(cc1N1CCC(N3CCN(Cc4ccc(C5CCC(=O)NC5=O)cc4)CC3)CC1)C(C)(C)c1[nH]c3cc(C#N)ccc3c1C2=O (stereo not shown) [GT-03762, 8-(4-(4-(4-(2,6-dioxopiperidin-3-yl)benzyl)piperazin-1-yl)piperidin-1-yl)-9-ethyl-6,6-dimethyl-11-oxo-6,11-dihydro-5H-benzo[b]carbazole-3-carbonitrile] | A (A is defined as 0% ≤ substrate protein remaining % ≤ 80%) | 1 to 10 | – | – | – | – | – | –
40 to 53 | 53 to 60 | 100 to 500 | CCc1cc2c(cc1N1CCC(N3CCN(Cc4ccc(C5CCC(=O)NC5=O)c(F)c4)CC3)CC1)C(C)(C)c1[nH]c3cc(C#N)ccc3c1C2=O (stereo not shown) [GT-03763, 8-(4-(4-(4-(2,6-dioxopiperidin-3-yl)-3-fluorobenzyl)piperazin-1-yl)piperidin-1-yl)-9-ethyl-6,6-dimethyl-11-oxo-6,11-dihydro-5H-benzo[b]carbazole-3-carbonitrile] | A (A is defined as 0% ≤ substrate protein remaining % ≤ 80%) | 1 to 10 | – | – | – | – | – | –
– | – | – | O=C1CCN(c2ccc(CCl)cn2)C(=O)N1 [GT-07009, 1-(5-(Chloromethyl)pyridin-2-yl)dihydropyrimidine-2,4(1H,3H)-dione] | – | – | B (B is defined as substrate protein remaining % > 80%) | B (B is defined as substrate protein remaining % > 80%) | A (A is defined as 0% ≤ substrate protein remaining % ≤ 80%) | B (B is defined as substrate protein remaining % > 80%) | B (B is defined as substrate protein remaining % > 80%) | B (B is defined as substrate protein remaining % > 80%)
– | – | – | O=C1CCC(c2ccc(CO)nc2)C(=O)N1 (stereo not shown) [GT-07010, 3-(6-(Hydroxymethyl)pyridin-3-yl)piperidine-2,6-dione] | – | – | B (B is defined as substrate protein remaining % > 80%) | B (B is defined as substrate protein remaining % > 80%) | A (A is defined as 0% ≤ substrate protein remaining % ≤ 80%) | A (A is defined as 0% ≤ substrate protein remaining % ≤ 80%) | A (A is defined as 0% ≤ substrate protein remaining % ≤ 80%) | B (B is defined as substrate protein remaining % > 80%)
– | – | – | NCc1ccc(N2CCC(=O)NC2=O)nc1 [GT-07012, 1-(5-(Aminomethyl)pyridin-2-yl)dihydropyrimidine-2,4(1H,3H)-dione] | – | – | A (A is defined as 0% ≤ substrate protein remaining % ≤ 80%) | B (B is defined as substrate protein remaining % > 80%) | B (B is defined as substrate protein remaining % > 80%) | A (A is defined as 0% ≤ substrate protein remaining % ≤ 80%) | A (A is defined as 0% ≤ substrate protein remaining % ≤ 80%) | B (B is defined as substrate protein remaining % > 80%)
